Reference: patent US11667602B2, “Compounds and their use” (AstraZeneca AB, priority 2020, dated 2023)
Converted amounts (≈) assume the structure as drawn.

Key:
Solubility (Test F) = type: physicochemical; conditions: arithmetic mean if run multiple times
Method: The assay was conducted according to the Solubility Assay described in pages 164-167 of Wernevik, J. et al., “A Fully Integrated Assay Panel for Early Drug Metabolism and Pharmacokinetics Profiling”, Assay and Drug Development Technologies, 2020, 18(4), 157-179. Data are reported in Table 36 as solubility ([…]. Where the assay was run multiple times for the same compound, the arithmetic mean is reported.

human RXFP1 = biological target: T1, human RXFP1 (Homo sapiens, UniProt Q9HBX9); assay: RXFP1 Hu cAMP (Test A); type: cell-based; design: expressed in transfected cells; host or cells: Jump-In T-REx CHO-K1 cells (ThermoFisher), induced with 10 ng/ml doxycycline for 24 h; conditions: RXFP1 Hu cAMP; for EC50: read-out: Test A EC50
T1 sequence (Q9HBX9 1-757): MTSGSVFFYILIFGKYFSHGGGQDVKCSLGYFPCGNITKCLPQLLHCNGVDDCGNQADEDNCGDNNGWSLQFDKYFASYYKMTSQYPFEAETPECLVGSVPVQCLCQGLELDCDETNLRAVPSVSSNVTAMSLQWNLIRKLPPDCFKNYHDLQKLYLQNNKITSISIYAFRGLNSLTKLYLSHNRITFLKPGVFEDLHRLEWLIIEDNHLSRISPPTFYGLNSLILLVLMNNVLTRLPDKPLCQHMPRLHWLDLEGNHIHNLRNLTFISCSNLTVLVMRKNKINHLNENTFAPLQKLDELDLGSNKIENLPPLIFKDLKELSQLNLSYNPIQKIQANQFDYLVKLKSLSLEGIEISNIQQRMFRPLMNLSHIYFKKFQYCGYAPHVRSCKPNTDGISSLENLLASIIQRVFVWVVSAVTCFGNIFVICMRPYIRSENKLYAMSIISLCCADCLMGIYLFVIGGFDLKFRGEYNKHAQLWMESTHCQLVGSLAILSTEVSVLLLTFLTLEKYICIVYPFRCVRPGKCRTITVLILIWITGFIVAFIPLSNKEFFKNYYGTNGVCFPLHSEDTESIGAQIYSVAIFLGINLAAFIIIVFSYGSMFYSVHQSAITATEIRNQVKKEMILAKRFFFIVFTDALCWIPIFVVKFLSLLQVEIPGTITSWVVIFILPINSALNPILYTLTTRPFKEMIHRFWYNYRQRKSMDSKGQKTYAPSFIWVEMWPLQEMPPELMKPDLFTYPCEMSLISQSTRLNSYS
In short: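 Read-out is HTRF signal, inversely proportional to cAMP, converted to cAMP amount by standard curve. Stimulation occurred in inducible CHO-K1 cells expressing the human receptor with phosphodiesterases blocked by 0.5 mM IBMX.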

[1] = Human Plasma Protein Binding (Test B); type: in vitro ADME; conditions: fraction unbound (fu)
In short: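 Values given as % free (fu) in human plasma, using the method of Wernevik et al. (2020). For compounds tested more than once, the arithmetic mean is given.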

[2] = Human Liver Microsomal Stability (Test C); type: in vitro ADME; conditions: human, liver microsomes
In short: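 CLint (μl/min/mg protein) derived from compound depletion in human liver microsomes following a published standardized early-DMPK protocol; replicate determinations given as arithmetic mean.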

[3] = Rat Hepatocyte Stability (Test E); type: in vitro ADME; conditions: rat, hepatocytes, geometric mean if run multiple times
In short: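 Intrinsic clearance in rat hepatocytes, expressed as μl/min/10^6 cells, following the literature integrated DMPK panel method. Repeat determinations combined as geometric mean.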

Structure (SMILES) | solubility (Solubility (Test F)) | Test A Sinf (human RXFP1) | EC50 (human RXFP1) | Test B Human Plasma Protein Binding (% free) [1] | microsomal CLint [2] | hepatocyte CLint [3]
COc1cc(F)c(O[C@H]2CC[C@@H](C(=O)O)CC2)cc1C(=O)N[C@@H]1[C@H]2CC[C@H](C2)[C@@H]1C(=O)Nc1cccc(C(F)(F)F)c1C [Example 24] | 590 µM (≈ 358 µg/mL) | 97% | 1000 nM | 1.8 % free | 29 µL/min/mg | 45 µL/min/1e6 cells
COc1cc(F)c(O[C@H]2CC[C@@H](C(=O)O)CC2)cc1C(=O)N[C@@H]1[C@H]2CC[C@H](C2)[C@@H]1C(=O)Nc1cc(C(F)(F)F)ccn1 [Example 14, (1S,4s)-4-(2-Fluoro-4-methoxy-5-(((1S,2R,3S,4R)-3-((4-(trifluoromethyl)pyridin-2-yl)carbamoyl)bicyclo[2.2.1]heptan-2-yl)carbamoyl)phenoxy)cyclohexane-1-carboxylic acid] | 770 µM (≈ 457 µg/mL) | 83% | 510 nM | 1.8 % free | 18 µL/min/mg | 27 µL/min/1e6 cells
COc1cc(F)c(O[C@H]2CC[C@@](C)(C(=O)O)CC2)cc1C(=O)N[C@@H]1COC[C@@H]1C(=O)Nc1ccc(F)c(C(F)(F)F)c1 [Example 52, (1R,4s)-4-(2-fluoro-5-(((3S,4R)-4-((4-fluoro-3-(trifluoromethyl)phenyl)carbamoyl)tetrahydrofuran-3-yl)carbamoyl)-4-methoxyphenoxy)-1-methylcyclohexane-1-carboxylic acid] | 890 µM (≈ 534 µg/mL) | 108% |  | 0.94 % free | 13 µL/min/mg | 34 µL/min/1e6 cells
COc1cc(F)c(O[C@H]2CC[C@@H](C(=O)O)CC2)cc1C(=O)N[C@@H]1[C@H]2CC[C@H](C2)[C@@H]1C(=O)Nc1c(F)c(F)c(F)c(F)c1F [Example 16, (1S,4s)-4-(2-Fluoro-4-methoxy-5-(((1S,2R,3S,4R)-3-((perfluorophenyl)carbamoyl)bicyclo[2.2.1]heptan-2-yl)carbamoyl)phenoxy)cyclohexane-1-carboxylic acid] | 330 µM (≈ 203 µg/mL) | 93% | 330 nM | 2.2 % free | 9.3 µL/min/mg | 49 µL/min/1e6 cells
COc1cc(F)c(O[C@H]2CC[C@@H](C(=O)O)CC2)cc1C(=O)N[C@@H]1[C@H]2CC[C@H](C2)[C@@H]1C(=O)NC1CC(F)(F)C1 [Example 33, (1S,4s)-4-(5-(((1S,2R,3S,4R)-3-((3,3-Difluorocyclobutyl)carbamoyl)bicyclo[2.2.1]heptan-2-yl)carbamoyl)-2-fluoro-4-methoxyphenoxy)cyclohexane-1-carboxylic acid] | > 1000 µM | 88% | > 5000 nM | 15 % free | < 3 µL/min/mg | 110 µL/min/1e6 cells
COc1cc(F)c(O[C@H]2CC[C@@](C)(C(=O)O)CC2)cc1C(=O)N[C@@H]1[C@H]2CC[C@H](C2)[C@@H]1C(=O)N[C@H](C)C(C)C [Example 46] | 380 µM (≈ 202 µg/mL) | 104% | 71 nM | 7.6 % free | 12 µL/min/mg | 12 µL/min/1e6 cells
COc1cc(C#N)c(O[C@H]2CC[C@@](C)(C(=O)O)CC2)cc1C(=O)N[C@@H]1[C@H]2CC[C@H](C2)[C@@H]1C(=O)NCC1(F)CCOCC1 [Example 110] | 950 µM (≈ 556 µg/mL) | 102% | 740 nM | 44 % free | < 3 µL/min/mg | 19 µL/min/1e6 cells
COc1cc(F)c(O[C@H]2CC[C@@](C)(C(=O)O)CC2)cc1C(=O)N[C@@H]1[C@H]2CC[C@H](C2)[C@@H]1C(=O)N[C@@H](C)C(C)C [Example 42] | > 1000 µM | 95% |  | 5.4 % free | < 3 µL/min/mg | 19 µL/min/1e6 cells

Now from value to compound:

solubility (Solubility (Test F)) | Test A Sinf (human RXFP1) | EC50 (human RXFP1) | Test B Human Plasma Protein Binding (% free) [1] | microsomal CLint [2] | hepatocyte CLint [3] | Structure (SMILES)
> 1000 µM | 107% | 130 nM | 0.89 % free | 57 µL/min/mg | 84 µL/min/1e6 cells | COc1cc(F)c(-c2ccc([C@@H]3C[C@H]3C(=O)O)nc2)cc1C(=O)N[C@@H]1[C@H]2CC[C@H](C2)[C@@H]1C(=O)Nc1cccc(S(=O)(=O)C(F)(F)F)c1 (single isomer, unassigned) [Example 261, (1R*,2R*)-2-(5-(2-Fluoro-4-methoxy-5-(((1S,2R,3S,4R)-3-((3-((trifluoromethyl)sulfonyl)phenyl)carbamoyl)bicyclo[2.2.1]heptan-2-yl)carbamoyl)phenyl)pyridin-2-yl)cyclopropane-1-carboxylic acid]
> 1000 µM | 103% | 320 nM | 1.2 % free | 9.9 µL/min/mg | 10 µL/min/1e6 cells | COc1cc(F)c(O[C@H]2CC[C@@](F)(C(=O)O)CC2)cc1C(=O)N[C@@H]1[C@H]2CC[C@H](C2)[C@@H]1C(=O)Nc1cccc(S(=O)(=O)C(F)(F)F)c1 [Example 416]
> 1000 µM | 99% | 19 nM | 3.7 % free | 37 µL/min/mg | 47 µL/min/1e6 cells | COc1cc(C#N)c(O[C@H]2CC[C@@H](C(=O)O)CC2)cc1C(=O)N[C@@H]1[C@H]2CC[C@H](C2)[C@@H]1C(=O)Nc1cccc(S(=O)(=O)C(F)(F)F)c1 [Example 467, (1S,4s)-4-(2-Cyano-4-methoxy-5-(((1S,2R,3S,4R)-3-((3-((trifluoromethyl)sulfonyl)phenyl)carbamoyl)bicyclo[2.2.1]heptan-2-yl)carbamoyl)phenoxy)cyclohexane-1-carboxylic acid]
> 1000 µM | 95% | > 2700 nM | 17 % free | 8.6 µL/min/mg | 39 µL/min/1e6 cells | COc1cc(F)c(O[C@H]2CC[C@@H](C(=O)O)CC2)cc1C(=O)N[C@@H]1[C@H]2CC[C@H](C2)[C@@H]1C(=O)NC12CC(C1)C2 [Example 178]
360 µM (≈ 238 µg/mL) | 108% |  | 0.57 % free | 69 µL/min/mg | 69 µL/min/1e6 cells | COc1cc(F)c(-c2ccc(/C=C/C(=O)O)nc2)cc1C(=O)N[C@@H]1[C@H]2CC[C@H](C2)[C@@H]1C(=O)Nc1cccc(S(=O)(=O)C(F)(F)F)c1 [Example 260, (E)-3-(5-(2-Fluoro-4-methoxy-5-(((1S,2R,3S,4R)-3-((3-((trifluoromethyl)sulfonyl)phenyl)carbamoyl)bicyclo[2.2.1]heptan-2-yl)carbamoyl)phenyl)pyridin-2-yl)acrylic acid]
> 1000 µM | 100% | > 2200 nM | 15 % free | 3.5 µL/min/mg | 130 µL/min/1e6 cells | COc1cc(F)c(O[C@H]2CC[C@@H](C(=O)O)CC2)cc1C(=O)N[C@@H]1[C@H]2CC[C@H](C2)[C@@H]1C(=O)NC1CCC1 [Example 177]
950 µM (≈ 589 µg/mL) |  | > 9400 nM | 28 % free | 11 µL/min/mg | 30 µL/min/1e6 cells | COc1cc(C#N)c(O[C@H]2CC[C@@](C)(C(=O)O)CC2)cc1C(=O)N[C@@H]1[C@H]2CC[C@H](C2)[C@@H]1C(=O)N[C@]12CC3CC(C[C@@](O)(C3)C1)C2 [Example 113]
550 µM (≈ 366 µg/mL) | 99% | 140 nM | 0.69 % free | 12 µL/min/mg | 12 µL/min/1e6 cells | COc1cc(F)c(-c2ccc(OCC(=O)O)nc2)cc1C(=O)N[C@@H]1[C@H]2CC[C@H](C2)[C@@H]1C(=O)Nc1cccc(S(=O)(=O)C(F)(F)F)c1 [Example 241]
